Source: patent US5041567A, “Antibacterial monic acid derivatives” (Beecham Group plc, priority 1982, dated 1991)
Values after ≈ are worked out from the molar mass of the structure shown. Like-named read-outs stand apart in the source and are kept apart here.

Columns and labels:
Staph. aureus W2827 = assay: MIC against human bacteria in vitro; type: cell-based; details: Staphylococcus aureus; Staph. aureus W2827; 5% chocolated horse blood agar, 18 hours; read-out: MIC
[1] = system: Corynebacterium xerosis 9755; assay: MIC against human bacteria in vitro; type: cell-based; details: Corynebacterium xerosis 9755; 5% chocolated horse blood agar, 18 hours; read-out: MIC
M. suipneumoniae MS 16 = assay: MIC against mycoplasma in vitro; type: cell-based; details: Mesomycoplasma hyopneumoniae, MS16, 144 h; M. suipneumoniae MS 16; 6 days, 37° C.; read-out: MIC
[2] = system: Strep. suis (group D) SPS11; assay: MIC against veterinary bacteria in vitro; details: Streptococcus suis, 18 h
Protocol: (§1) The activity of the compounds of the Examples against various veterinarily important bacteria, was assayed in vitro using two-fold serial dilutions in Diagnostic Sensitivity Test Agar inoculated with 10^4 organisms.

[3] = system: Haemophilus influenzae Wy21; assay: MIC against human bacteria in vitro; type: cell-based; details: Haemophilus influenzae Wy21; 5% chocolated horse blood agar, 18 hours; read-out: MIC
M. dispar NCTC 10125 = assay: MIC against mycoplasma in vitro; type: cell-based; details: 144 h
Sarcina lutea 8340 = assay: MIC against human bacteria in vitro; type: cell-based; details: Micrococcus luteus; Sarcina lutea 8340; 5% chocolated horse blood agar, 18 hours; read-out: MIC
Strep. faecalis I = assay: MIC against human bacteria in vitro; type: cell-based; details: Enterococcus faecalis; Strep. faecalis I; 5% chocolated horse blood agar, 18 hours; read-out: MIC
K. aerogenes A = assay: MIC against human bacteria in vitro; type: cell-based; details: Klebsiella aerogenes; K. aerogenes A; 5% chocolated horse blood agar, 18 hours; read-out: MIC
Staph. aureus Oxford = assay: MIC against human bacteria in vitro; type: cell-based; details: Staphylococcus aureus; Staph. aureus Oxford; 5% chocolated horse blood agar, 18 hours; read-out: MIC
Bacillus subtilis 6633 = assay: MIC against human bacteria in vitro; type: cell-based; details: Bacillus subtilis 6633; 5% chocolated horse blood agar, 18 hours; read-out: MIC
Staph. aureus Russell = assay: MIC against human bacteria in vitro; type: cell-based; details: Staphylococcus aureus; Staph. aureus Russell; 5% chocolated horse blood agar, 18 hours; read-out: MIC
Strep. agalactiae SPA1 = assay: MIC against veterinary bacteria in vitro; details: Streptococcus agalactiae, SPA1, 18 h
Protocol: as §1

M. suipneumoniae JF 435 = assay: MIC against mycoplasma in vitro; type: cell-based; details: Mesomycoplasma hyopneumoniae, JF435, 144 h
S. dublin S7 = assay: MIC against veterinary bacteria in vitro; details: Salmonella enterica, S7, 18 h
Protocol: as §1

Past. multocida PA1 = assay: MIC against veterinary bacteria in vitro; details: Pasteurella multocida, PA1, 18 h
Protocol: as §1

[4] = system: Staph. aureus B4 (pen. resistant); assay: MIC against veterinary bacteria in vitro; details: Staphylococcus aureus, 18 h
Protocol: as §1

P. mirabilis 889 = assay: MIC against human bacteria in vitro; type: cell-based; details: Proteus mirabilis; P. mirabilis 889; 5% chocolated horse blood agar, 18 hours; read-out: MIC
[5] = system: Corynebacterium pyogenes CY1; assay: MIC against veterinary bacteria in vitro; details: CY1, 18 h
Protocol: as §1

[6] = system: M. bovigenitalium ATCC 14173; assay: MIC against mycoplasma in vitro; type: cell-based; details: 144 h
[7] = system: Strep. pyogenes R80/421-A; assay: MIC against human bacteria in vitro; type: cell-based; details: Streptococcus pyogenes; Strep. pyogenes R80/421-A; 5% chocolated horse blood agar, 18 hours; read-out: MIC
M. suipneumoniae NB12 = assay: MIC against mycoplasma in vitro; type: cell-based; details: Mesomycoplasma hyopneumoniae
[8] = system: M. suipneumoniae J2206/183^b; assay: MIC against mycoplasma in vitro; type: cell-based; details: Mesomycoplasma hyopneumoniae, 144 h
[9] = system: Ps. aeruginosa NCTC 10662; assay: MIC against human bacteria in vitro; type: cell-based; details: Pseudomonas aeruginosa, NCTC10662; Ps. aeruginosa NCTC 10662; 5% chocolated horse blood agar, 18 hours; read-out: MIC
[10] = system: Pasteurella multocida 1633; assay: MIC against human bacteria in vitro; type: cell-based; details: Pasteurella multocida 1633; 5% chocolated horse blood agar, 18 hours; read-out: MIC
E. coli ESS = assay: MIC against human bacteria in vitro; type: cell-based; details: Escherichia coli; E. coli ESS; 5% chocolated horse blood agar, 18 hours; read-out: MIC
M. suipneumoniae TAM 6N = assay: MIC against mycoplasma in vitro; type: cell-based; details: Mesomycoplasma hyopneumoniae, TAM6N, 144 h
M. hyorhinis ATCC 25021 = assay: MIC against mycoplasma in vitro; type: cell-based; details: Mesomycoplasma hyorhinis, ATCC25021, 144 h; M. hyorhinis ATCC 25021; 6 days, 37° C.; read-out: MIC
Strep. uberis SPU1 = assay: MIC against veterinary bacteria in vitro; details: Streptococcus uberis, SPU1, 18 h
Protocol: as §1

[11] = system: M. hyosynoviae ATCC 25591; assay: MIC against mycoplasma in vitro; type: cell-based; details: 144 h
Strep. spp. 64/848-C = assay: MIC against human bacteria in vitro; type: cell-based; details: Strep. spp. 64/848-C; 5% chocolated horse blood agar, 18 hours; read-out: MIC
M. suipneumoniae Str. 11 = assay: MIC against mycoplasma in vitro; type: cell-based; details: Mesomycoplasma hyopneumoniae, 144 h; M. suipneumoniae Str. 11; 6 days, 37° C.; read-out: MIC
Strep. agalactiae 2788-B = assay: MIC against human bacteria in vitro; type: cell-based; details: Streptococcus agalactiae; Strep. agalactiae 2788-B; 5% chocolated horse blood agar, 18 hours; read-out: MIC
[12] = system: M. suipneumoniae ATCC 25095; assay: MIC against mycoplasma in vitro; type: cell-based; details: Mesomycoplasma hyopneumoniae, ATCC25095, 144 h
[13] = M. suipneumoniae ATCC 25095, 6 days, 37° C., read-out: MIC
[14] = M. dispar NCTC 10125, 6 days, 37° C., read-out: MIC

Structure (SMILES) | MIC (Staph. aureus W2827) | MIC [1] | MIC (M. suipneumoniae MS 16) | MIC [2] | MIC [3] | MIC (Sarcina lutea 8340) | MIC (Strep. faecalis I) | MIC (K. aerogenes A) | MIC (Staph. aureus Oxford) | MIC (Bacillus subtilis 6633) | MIC (Staph. aureus Russell) | MIC (Strep. agalactiae SPA1) | MIC (S. dublin S7) | MIC (Past. multocida PA1) | MIC [4] | MIC (P. mirabilis 889) | MIC [5] | MIC [6] | MIC [7] | MIC [9] | further results
C/C(=C\c1ncc(Cc2ccccc2)o1)C[C@@H]1OC[C@H](C[C@@H]2O[C@H]2[C@@H](C)[C@H](C)O)[C@@H](O)[C@H]1O [Example 27, 5-Benzyl-2-(1-normon-2-yl)oxazole A] | 16 µg/mL (≈ 35 µM) | > 64 µg/mL | 5 µg/mL (≈ 10.9 µM) | > 80 µg/mL | 2 µg/mL (≈ 4.37 µM) | > 64 µg/mL | > 64 µg/mL | > 64 µg/mL | 8 µg/mL (≈ 17.5 µM) | 4 µg/mL (≈ 8.74 µM) | 16 µg/mL (≈ 35 µM) | 20 µg/mL (≈ 43.7 µM) | > 80 µg/mL | 20 µg/mL (≈ 43.7 µM) | 2.5 µg/mL (≈ 5.46 µM) | > 64 µg/mL | > 80 µg/mL | 0.25 µg/mL (≈ 0.546 µM) | 4 µg/mL (≈ 8.74 µM) | > 64 µg/mL | MIC (M. dispar NCTC 10125): 2.5 µg/mL (≈ 5.46 µM); MIC (M. suipneumoniae JF 435; M. suipneumoniae JF 435, 6 days, 37° C., read-out: MIC): 10 µg/mL (≈ 21.9 µM); MIC (M. suipneumoniae NB12; NB12, 144 h): 5 µg/mL (≈ 10.9 µM); MIC ([8]; M. suipneumoniae J2206/183^b, 6 days, 37° C., read-out: MIC): 10 µg/mL (≈ 21.9 µM); MIC [10]: 32 µg/mL (≈ 69.9 µM); MIC (E. coli ESS): 16 µg/mL (≈ 35 µM); MIC (M. suipneumoniae TAM 6N; M. suipneumoniae TAM 6N, 6 days, 37° C., read-out: MIC): 10 µg/mL (≈ 21.9 µM); MIC (M. hyorhinis ATCC 25021): 5 µg/mL (≈ 10.9 µM); MIC (Strep. uberis SPU1): 1.25 µg/mL (≈ 2.73 µM); MIC [11]: 2.5 µg/mL (≈ 5.46 µM); MIC (Strep. spp. 64/848-C): 16 µg/mL (≈ 35 µM); MIC (M. suipneumoniae Str. 11): 5 µg/mL (≈ 10.9 µM); MIC (Strep. agalactiae 2788-B): 16 µg/mL (≈ 35 µM); MIC [12, 13]: 5 µg/mL (≈ 10.9 µM)
CSc1cccc(-c2cnc(/C=C(\C)C[C@@H]3OC[C@H](C[C@@H]4O[C@H]4[C@@H](C)[C@H](C)O)[C@@H](O)[C@H]3O)o2)c1 [Example 22, 5-m-Methylthiophenyl-2-(1-normon-2-yl)oxazole A] | 16 µg/mL (≈ 32.7 µM) | > 128 µg/mL | 0.5 µg/mL (≈ 1.02 µM) | 20 µg/mL (≈ 40.8 µM) | 4 µg/mL (≈ 8.17 µM) | > 128 µg/mL | > 128 µg/mL | > 128 µg/mL | 4 µg/mL (≈ 8.17 µM) | 4 µg/mL (≈ 8.17 µM) | 16 µg/mL (≈ 32.7 µM) | 10 µg/mL (≈ 20.4 µM) | > 80 µg/mL | 20 µg/mL (≈ 40.8 µM) | 1.25 µg/mL (≈ 2.55 µM) | > 128 µg/mL | > 80 µg/mL | 0.1 µg/mL (≈ 0.204 µM) | 8 µg/mL (≈ 16.3 µM) | > 128 µg/mL | MIC (M. dispar NCTC 10125; [14]): 0.5 µg/mL (≈ 1.02 µM); MIC (M. suipneumoniae JF 435): 1 µg/mL (≈ 2.04 µM); MIC (M. suipneumoniae NB12; NB12, 144 h): 1 µg/mL (≈ 2.04 µM); MIC [8]: 1 µg/mL (≈ 2.04 µM); MIC [10]: 32 µg/mL (≈ 65.4 µM); MIC (E. coli ESS): 64 µg/mL (≈ 131 µM); MIC (M. suipneumoniae TAM 6N): 1 µg/mL (≈ 2.04 µM); MIC (M. hyorhinis ATCC 25021): 0.5 µg/mL (≈ 1.02 µM); MIC (Strep. uberis SPU1): 0.156 µg/mL (≈ 0.319 µM); MIC [11]: 1 µg/mL (≈ 2.04 µM); MIC (Strep. spp. 64/848-C): 16 µg/mL (≈ 32.7 µM); MIC (M. suipneumoniae Str. 11): 0.5 µg/mL (≈ 1.02 µM); MIC (Strep. agalactiae 2788-B): 16 µg/mL (≈ 32.7 µM); MIC [12]: 1 µg/mL (≈ 2.04 µM)
C/C(=C\c1ncc(-c2cccc(S(C)(=O)=O)c2)o1)C[C@@H]1OC[C@H](C[C@@H]2O[C@H]2[C@@H](C)[C@H](C)O)[C@@H](O)[C@H]1O [Example 23, 5-m-Methylsulphonylphenyl-2-(1-normon-2-yl) oxazole A] | 16 µg/mL (≈ 30.7 µM) | > 128 µg/mL | 0.5 µg/mL (≈ 0.959 µM) | 10 µg/mL (≈ 19.2 µM) | 1 µg/mL (≈ 1.92 µM) | > 128 µg/mL | > 128 µg/mL | > 64 µg/mL | 4 µg/mL (≈ 7.67 µM) | 2 µg/mL (≈ 3.83 µM) | 16 µg/mL (≈ 30.7 µM) | 2.5 µg/mL (≈ 4.79 µM) | > 80 µg/mL | 5 µg/mL (≈ 9.59 µM) | 5 µg/mL (≈ 9.59 µM) | > 64 µg/mL | > 80 µg/mL | 0.1 µg/mL (≈ 0.192 µM) | 0.5 µg/mL (≈ 0.959 µM) | > 64 µg/mL | MIC (M. dispar NCTC 10125; [14]): 0.5 µg/mL (≈ 0.959 µM); MIC (M. suipneumoniae JF 435): 1 µg/mL (≈ 1.92 µM); MIC (M. suipneumoniae NB12; 144 h, M. suipneumoniae NB12, Friis broth, 0.9% agarose, 6 days, 37° C., read-out: MIC): 0.5 µg/mL (≈ 0.959 µM); MIC [8]: 1 µg/mL (≈ 1.92 µM); MIC [10]: 2 µg/mL (≈ 3.83 µM); MIC (E. coli ESS): 4 µg/mL (≈ 7.67 µM); MIC (M. suipneumoniae TAM 6N): 1 µg/mL (≈ 1.92 µM); MIC (M. hyorhinis ATCC 25021): 0.5 µg/mL (≈ 0.959 µM); MIC (Strep. uberis SPU1): 0.625 µg/mL (≈ 1.2 µM); MIC [11]: 1 µg/mL (≈ 1.92 µM); MIC (Strep. spp. 64/848-C): 2 µg/mL (≈ 3.83 µM); MIC (M. suipneumoniae Str. 11): 0.5 µg/mL (≈ 0.959 µM); MIC (Strep. agalactiae 2788-B): 2 µg/mL (≈ 3.83 µM); MIC [12, 13]: 0.5 µg/mL (≈ 0.959 µM)
